# Source: patent US20250109120A1, “INDOLINE DERIVATIVES FOR TREATMENT AND/OR PREVENTION OF TUMOR OR CELL PROLIFERATIVE AND FIBROSIS DISEASES” (NATIONAL TAIWAN UNIVERSITY, priority 2023, published 2025)
# Legend:
# CDK8 = CDK8 (Homo sapiens (Human), UniProt P49336); settings: commercial CDK8 inhibitor; cited from earlier work
# DU145 cells = assay: LiCl-induced β-catenin signaling, western blot; assay type: cell-based, human; settings: LiCl 20 mM; senexin A 10 μM
# Experimental: Inhibitory phosphorylation of GSK3β was evaluated through western blotting. […] Whole-cell lysates were subjected to western blotting with the indicated antibodies. FIGS. 11J-11K show the comparison of basal activities of the Akt/GSK3β axis between PC-3 and DU145 cells. […] The results are shown as the mean±SEM from at least three independent experiments (*p<0.05, **p<0.01, ***p<0.001 vs. control group; #p<0.05, ##p<0.01, and ###p<0.001 vs. relevant control).
# The cells were incubated in lysis buffer for 10 min at 4° C., scraped off, incubated on ice for an additional 10 min and then centrifuged at 17,000 g for 30 min at 4° C. Protein samples were electrophoresed on SDS-PAGE gels, transferred to PVDF membranes and blocked with 5% fat-free milk in PBS for 30 min at room temperature. Immunoblotting was performed overnight with primary antibodies in PBS at 4° C., followed by incubation with HRP-conjugated secondary antibodies for 1 h at room temperature. Bound antibodies will be measured using an ECL reagent and exposed to a photographic film. In the immunoprecipitation assay, cell lysates were immunoprecipitated with 1 μg of antibody and A/G agarose beads overnight at 4° C. After washing the precipitated beads three times with 1 mL ice-cold cell lysis buffer, bound immune complexes were separated by 10% SDS-PAGE and analyzed with immunoblotting.
# A549 cells [1] = assay: TGF-β1-induced EMT protein expression, western blot; assay type: cell-based, human; settings: test compounds 2 μM, senexin A 5 μM, pirfenidone 1 mM; TGF-β1 10 ng/mL
# Experimental: FIGS. 4A-4B show the inhibition of epithelial-to-mesenchymal transition protein expressions by CDK8 inhibitors in human alveolar epithelial cells. […] Cell lysates were subjected to a Western blot analysis using the indicated antibodies. Results are shown as the mean t SEM from three independent experiments. *p<0.05, and ***p<0.001 compared to the control group; #p<0.05, ##p<0.01, and ###p<0.001 compared to the TGF-β1-treated group. […] Cell viabilities were determined by an MTT assay. Results are shown as the mean t SEM of three independent experiments.
# (§1) Cells (106) were incubated for 10 min at 4° C. in lysis buffer (20 mM HEPES at pH 7.4, 2 mM EGTA, 50 mM β-glycerophosphate, 0.1% Triton X-100, 10% glycerol, 1 mM DTT, 1 μg/mL of leupeptin, 5 μg/mL of aprotinin, 1 mM phenylmethylsulfonyl fluoride, and 1 mM sodium orthovanadate), scraped off, incubated on ice for an additional 10 min, and centrifuged at 17,000 g for 30 min at 4° C. Protein samples (20 μg) were then electrophoresed on SDS-polyacrylamide gel electrophoresis (PAGE) gels and transferred to a nitrocellulose membrane, which was then blocked by incubation for 30 min at room temperature with 5% bovine serum albumin (BSA) in Tris-buffered saline with 0.1% Tween-20 (TBST). Immunoblotting was performed by overnight incubation at 4° C. with primary antibodies in TBST, followed by incubation for 1 h at room temperature with horseradish peroxidase (HRP)-conjugated secondary antibodies. Bound antibodies were measured using enhanced chemiluminescence (ECL) reagent (GE Healthcare, UK) and exposed to photographic film.
# A549 cells [2] = assay: Nuclear p-Smad3 T179 and RNA polymerase II pS2/S5 after TGF-β1, fractionation and western blot; assay type: cell-based, human; settings: compound k 5 μM, senexin A 5 μM, pirfenidone 1 mM; TGF-β1 10 ng/ml 3 h
# Experimental: FIGS. 8A-8B show the inhibitory effects of cellular distributions of TGF-β1-induced p-Smad3 T179, RNA polymerase II pS2/S5, and Smad3 after treatment with compound k. Human alveolar epithelial A549 cells were incubated with compound k (5 μM), senexin A (5 μM), or pirfenidone (1 mM) for 1 h, followed by stimulation with TGF-β1 (10 ng/ml) for 3 h. Protein expressions in the cytoplasmic and nuclear fractions were subjected to a Western blot analysis using the indicated antibodies. α-Tubulin and histone H3 served as loading controls for the cytoplasmic and nuclear fractions, respectively. Results are shown as the mean±SEM of three independent experiments. **p<0.01 and ***p<0.001 compared to the control group; #p<0.05 and ##p<0.01 compared to the TGF-β1-treated group.
# as §1
# A Nuclear/Cytosol Fractionation Kit (Biovision, USA) was used to separate the cytosolic and nuclear fractions. […]
# Sequence of CDK8 (P49336 whole entry, looked up, species assumed): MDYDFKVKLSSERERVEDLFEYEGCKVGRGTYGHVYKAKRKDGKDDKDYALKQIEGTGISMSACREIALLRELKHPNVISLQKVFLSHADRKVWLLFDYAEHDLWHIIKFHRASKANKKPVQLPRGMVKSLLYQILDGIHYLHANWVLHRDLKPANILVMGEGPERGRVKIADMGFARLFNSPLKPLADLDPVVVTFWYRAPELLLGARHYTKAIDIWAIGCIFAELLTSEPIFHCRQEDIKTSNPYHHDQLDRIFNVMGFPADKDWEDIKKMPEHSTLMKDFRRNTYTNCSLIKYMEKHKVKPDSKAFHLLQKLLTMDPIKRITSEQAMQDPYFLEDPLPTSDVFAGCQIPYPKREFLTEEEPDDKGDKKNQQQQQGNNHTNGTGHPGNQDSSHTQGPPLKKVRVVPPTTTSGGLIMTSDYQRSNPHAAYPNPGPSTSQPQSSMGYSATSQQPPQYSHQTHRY
# Sequence of CDK8 (P24863 whole entry partner, looked up, species assumed): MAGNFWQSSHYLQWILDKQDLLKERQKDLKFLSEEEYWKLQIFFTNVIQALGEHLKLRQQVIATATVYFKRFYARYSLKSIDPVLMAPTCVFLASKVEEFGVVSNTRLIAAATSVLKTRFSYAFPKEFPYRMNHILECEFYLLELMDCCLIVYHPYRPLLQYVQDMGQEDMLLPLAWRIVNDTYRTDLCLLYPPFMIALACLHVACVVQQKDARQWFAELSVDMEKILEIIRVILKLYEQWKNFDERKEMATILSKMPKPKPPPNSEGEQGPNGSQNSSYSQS
smiles,measurement,setting,value
"N#Cc1ccc2ncnc(NCCc3ccccc3)c2c1 [Senexin A, reference compound]",IC50,CDK8,280 nM
same,levels of active form of β-catenin and Snail,DU145 cells,reduced the levels
same,TGF-β1-triggered EMT protein expressions,A549 cells [1],slight inhibition
same,phosphorylation of p-Smad3 T179 and RNA Pol II pSer2/5,A549 cells [2],less-potent inhibition
